Read-outs that look alike come from different tables or passages of the source.
Columns and labels:
[1] = system: albumin and α-1 acid glycoprotein; design: method as in PMID 25547867; settings: cited from earlier work
[2] = target: T1, breast cancer resistance protein (BCRP) (Homo sapiens, UniProt Q9UNQ0); settings: cited from earlier work
T1 construct: permeability and efflux ratio of epertinib across Caco-2 cell monolayers; endogenous in cells; host or cells: Caco-2
T1 sequence (Q9UNQ0 1-655): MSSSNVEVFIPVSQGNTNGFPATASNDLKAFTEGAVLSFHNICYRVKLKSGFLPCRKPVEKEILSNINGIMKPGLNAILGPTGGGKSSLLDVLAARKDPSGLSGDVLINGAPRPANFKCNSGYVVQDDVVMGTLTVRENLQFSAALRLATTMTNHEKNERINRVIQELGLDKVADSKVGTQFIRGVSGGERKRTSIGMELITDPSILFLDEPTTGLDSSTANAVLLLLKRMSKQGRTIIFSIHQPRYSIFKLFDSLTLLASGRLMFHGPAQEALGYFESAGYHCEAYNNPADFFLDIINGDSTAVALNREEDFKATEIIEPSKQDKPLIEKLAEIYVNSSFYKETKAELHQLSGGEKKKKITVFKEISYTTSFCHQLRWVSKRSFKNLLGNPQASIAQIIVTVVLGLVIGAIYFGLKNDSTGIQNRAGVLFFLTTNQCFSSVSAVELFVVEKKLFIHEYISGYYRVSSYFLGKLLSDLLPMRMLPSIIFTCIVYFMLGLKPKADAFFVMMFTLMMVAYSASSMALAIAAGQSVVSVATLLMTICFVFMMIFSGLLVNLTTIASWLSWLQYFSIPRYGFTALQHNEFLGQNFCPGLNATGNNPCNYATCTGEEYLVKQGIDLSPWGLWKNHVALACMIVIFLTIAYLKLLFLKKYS

[3] = target: T1, breast cancer resistance protein (BCRP); test: BCRP substrate assessment; format: in vitro ADME; settings: from permeability and efflux ratio across Caco-2 cell monolayers
[4] = system: MDA-MB-361; test: Mammary fat pad implantation model, antitumor activity; format: in vivo, mice; settings: Mus musculus, 672 h; MDA-MB-361 in mammary fat pad, oral daily for 28 days
Text: (§1) We evaluated the inhibitory activity of epertinib on the in vitro growth of the parental cell line, MDA-MB-361. […] To compare the growth inhibitory activity of epertinib on the parental and metastatic (BR2) cell lines, we evaluated the antitumor activity of epertinib in both cell lines. […] To confirm the antitumor activity of epertinib in the IVM, we examined the effect of epertinib on the IVM transplanted BR2.
(§2) Figure 6 In vivo antitumor activity of epertinib in the breast cancer IVM. Epertinib inhibits the growth of breast cancer in animal models. In each animal model, vehicle or indicated doses of epertinib were orally administered daily. Tumor volume was measured twice or thrice weekly and the mean tumor volume with SD is represented by each data point. Human breast cancer cells, MDA-MB-361 (A) or MDA-MB-361-luc-BR2 (B) was implanted orthotopically into the mammary fat pad of mice. Tumor-bearing mice were treated for 28 days (A and B). Tumor growth in the breast cancer IVM ([…]) was monitored by the photons emitted from the tumor as an indicator, which was measured with an IVIS Imaging System 200 (Caliper Life Sciences). […] The photons were measured once or twice weekly and the mean photons/sec with SD are presented at each data point (n = 3 for vehicle, n = 4 for 50 mg/kg of epertinib) (C). […]

[5] = system: MDA-MB-361-luc-BR2; test: as above; format: in vivo, mice; settings: Mus musculus, 672 h; BR2 in mammary fat pad, oral daily for 28 days
Text: as §1, §2

[6] = system: HER2-positive metastatic breast cancer patients; design: method as in earlier work; settings: cited from earlier work; for Objective response rate (ORR): heavily pretreated HER2-positive metastatic breast cancer
[7] = system: patients with solid tumors; design: method as in PMID 25434923, PMID 25434923, PMID 25434923; settings: phase I trials; cited from earlier work
[8] = system: MDA-MB-361 cell line; test: In vitro growth inhibition of parental cell line; format: cell-based; settings: Homo sapiens
Text: as §1

[9] = system: EGFR; design: method as in PMID 24837299; settings: cited from earlier work
[10] = system: experimental brain metastasis of HER2-positive breast cancer (IVM); test: Antitumor activity in the breast cancer IVM (bioluminescence); format: in vivo, mice; settings: once daily oral 50 mg/kg, 30 days, photons emitted from tumor
Text: as §1, §2

[11] = Plasma radioactivity and epertinib after single oral [14C]-epertinib hydrochloride in rats; format: in vivo
Text: We used quantitative IMS to analyze and compare the distribution of epertinib and lapatinib in brain metastasis. IMS can simultaneously detect diverse molecules and obtain spatial distribution information capable of distinguishing between a drug and its metabolites in tissue sections[21],[35]. Historically, drug metabolism and pharmacokinetic studies have used radiolabels to perform autoradiography and obtain information about tissue distribution. Previously, plasma concentrations of radioactivity and epertinib were determined after a single oral administration of [^14C]-epertinib hydrochloride at a dose of 5 mg/kg (as epertinib) in rats (Supplementary Fig. S3). […] The AUC0–12 h and AUCinf values were 126 ± 18 and 392 ± 316 ng·h/mL, respectively. The plasma epertinib/radioactivity concentration ratio ranged from 10.9% to 16.2% through the measurable points, and the AUCinf ratio was ~20.8 ± 15.0%.
Supplementa ry Figure S3. Concentration of radioactivity and epertinib in plasma after single oral administration of [14C]-epertinib hydrochloride to non-f as ti ng male rats (dose: 5 mg as epertinib /kg)
Data ar e ex pressed as the mean values + SD o f fou r animals.
(1 picture or pasted object on this page, not shown here)

[12] = system: HER2; design: method as in PMID 24837299; settings: cited from earlier work

## CS(=O)(=O)CCNCc1ccc(-c2ccc3ncnc(Nc4ccc(OCc5cccc(F)c5)c(Cl)c4)c3c2)o1 [Lapatinib, N-{3-chloro-4-[(3-fluorobenzyl)oxy]phenyl}-6-[5-({[2-(methylsulfonyl)ethyl]amino}methyl)-2-furyl]-4-quinazolinamine, reference compound]
[1]
  Binding to albumin and α-1 acid glycoprotein: > 99.9%
[2]
  BCRP substrate: substrates

## CC#CC(=NOCC1COCCN1)c1ccc2ncnc(Nc3ccc(OCc4cccc(F)c4)c(Cl)c3)c2c1 (stereo not shown) [Epertinib]
[3]
  BCRP substrate: not a substrate
[4]
  ED50: 24.1 mg/kg
[5]
  ED50: 26.5 mg/kg
[6]; all the participants in a clinical trial
  Tumor reduction (partial response), brain metastases as the target lesion: two of 45
[6]; in combination with trastuzumab and capecitabine
  Objective response rate (ORR): 56%
[6]; in combination with trastuzumab
  Objective response rate (ORR): 67%
[6]; in combination with trastuzumab, patients previously treated with lapatinib plus capecitabine or ado-trastuzumab emtansine
  Tumor response (patients): seven of 21
[7]
  Tolerability: well tolerated
[8]
  IC50: 26.5 nM
[9]
  Off-rate of dissociation compared with lapatinib: slower off-rate of dissociation
[10]
  Effect on brain tumor volume: significantly reduced the brain tumor volume
[11]
  Epertinib/radioactivity AUCinf ratio: ~ 20.8 ± 15.0%
[11]; male, rat, plasma, single oral 5 mg/kg [14C]-epertinib hydrochloride, read-out: AUC0–12 h of epertinib
  AUC(0-t): 126 ± 18 ng·h/mL
[11]; male, rat, plasma, single oral 5 mg/kg [14C]-epertinib hydrochloride, read-out: AUCinf of epertinib
  AUC(0-inf): 392 ± 316 ng·h/mL
[11]; male, rat, plasma, single oral 5 mg/kg [14C]-epertinib hydrochloride, read-out: Plasma concentration of epertinib, Cmax
  Cmax: 14.1 ± 3.6 ng/mL
[11]; single oral 5 mg/kg [14C]-epertinib hydrochloride
  Time of Cmax of plasma epertinib: 5.00 ± 1.15 h
[12]
  Off-rate of dissociation compared with lapatinib: slower off-rate of dissociation
